ChEMBL document CHEMBL3813616, “Discovery of novel 7-azaindoles as PDK1 inhibitors” (Bioorg Med Chem Lett, 2016)

Key:
[1] = target: MAP/microtubule affinity-regulating kinase 3 (Homo sapiens) (UniProt P27448); experiment: Inhibition of human MARK3 (2 to 729 residues) assessed as enzyme activity at 1 uM using 33P ATP by radioactive filter binding assay; design: scale not given: the % may be the effect or the level left
[2] = target: Calcium/calmodulin-dependent protein kinase type 1 (Homo sapiens) (UniProt Q14012); experiment: Inhibition of human CAMK1 (2 to 369 residues) assessed as enzyme activity at 1 uM using 33P ATP by radioactive filter binding assay; design: scale not given: the % may be the effect or the level left
Sequence of Calcium/calmodulin-dependent protein kinase type 1 (Homo sapiens) (Q14012 whole entry, looked up, the tested form may be a part): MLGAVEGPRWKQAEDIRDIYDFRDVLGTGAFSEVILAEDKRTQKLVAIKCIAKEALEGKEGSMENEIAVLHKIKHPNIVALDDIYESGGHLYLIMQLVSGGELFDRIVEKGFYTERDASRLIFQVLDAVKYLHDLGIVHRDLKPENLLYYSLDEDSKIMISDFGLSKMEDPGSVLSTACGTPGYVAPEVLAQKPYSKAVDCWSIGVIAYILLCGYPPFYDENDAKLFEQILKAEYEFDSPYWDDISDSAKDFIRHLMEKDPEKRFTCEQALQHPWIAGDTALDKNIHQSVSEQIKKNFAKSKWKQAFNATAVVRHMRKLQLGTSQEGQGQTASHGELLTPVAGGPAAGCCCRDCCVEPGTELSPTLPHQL

[3] = target: AMP-activated protein kinase, AMPK (Homo sapiens) (UniProt P54646+O43741+P54619+Q9UGJ0+Q9Y478+Q13131+Q9UGI9); experiment: Inhibition of human AMPK assessed as enzyme activity at 1 uM using 33P ATP by radioactive filter binding assay; format: protein-complex assay; design: scale not given: the % may be the effect or the level left
[4] = target: Serine/threonine-protein kinase Chk2 (Homo sapiens) (UniProt O96017); experiment: Inhibition of human CHK2 (5 to 543 residues) assessed as enzyme activity at 1 uM using 33P ATP by radioactive filter binding assay; design: scale not given: the % may be the effect or the level left
Sequence of Serine/threonine-protein kinase Chk2 (Homo sapiens) (O96017 whole entry, the tested form may be a part): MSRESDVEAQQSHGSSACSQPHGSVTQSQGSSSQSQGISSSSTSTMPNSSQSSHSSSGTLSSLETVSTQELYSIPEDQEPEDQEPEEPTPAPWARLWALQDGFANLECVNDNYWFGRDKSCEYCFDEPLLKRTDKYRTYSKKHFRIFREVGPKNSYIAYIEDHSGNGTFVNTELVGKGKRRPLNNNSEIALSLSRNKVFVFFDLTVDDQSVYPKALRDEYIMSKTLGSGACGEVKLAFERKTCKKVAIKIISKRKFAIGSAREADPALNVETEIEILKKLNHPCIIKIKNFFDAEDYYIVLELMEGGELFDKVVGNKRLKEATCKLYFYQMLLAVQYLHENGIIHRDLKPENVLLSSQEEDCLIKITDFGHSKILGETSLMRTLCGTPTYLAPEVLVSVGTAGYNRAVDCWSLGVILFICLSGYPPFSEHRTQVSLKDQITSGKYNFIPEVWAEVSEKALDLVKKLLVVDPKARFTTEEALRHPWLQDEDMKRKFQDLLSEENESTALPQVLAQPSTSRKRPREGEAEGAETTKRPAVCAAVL

[5] = target: T1, Ephrin type-B receptor 3 (Homo sapiens) (UniProt P54753); experiment: Inhibition of human EPHB3 (561 to 998 residues) assessed as enzyme activity at 1 uM using 33P ATP by radioactive filter binding assay; design: scale not given: the % may be the effect or the level left
T1 sequence (whole entry): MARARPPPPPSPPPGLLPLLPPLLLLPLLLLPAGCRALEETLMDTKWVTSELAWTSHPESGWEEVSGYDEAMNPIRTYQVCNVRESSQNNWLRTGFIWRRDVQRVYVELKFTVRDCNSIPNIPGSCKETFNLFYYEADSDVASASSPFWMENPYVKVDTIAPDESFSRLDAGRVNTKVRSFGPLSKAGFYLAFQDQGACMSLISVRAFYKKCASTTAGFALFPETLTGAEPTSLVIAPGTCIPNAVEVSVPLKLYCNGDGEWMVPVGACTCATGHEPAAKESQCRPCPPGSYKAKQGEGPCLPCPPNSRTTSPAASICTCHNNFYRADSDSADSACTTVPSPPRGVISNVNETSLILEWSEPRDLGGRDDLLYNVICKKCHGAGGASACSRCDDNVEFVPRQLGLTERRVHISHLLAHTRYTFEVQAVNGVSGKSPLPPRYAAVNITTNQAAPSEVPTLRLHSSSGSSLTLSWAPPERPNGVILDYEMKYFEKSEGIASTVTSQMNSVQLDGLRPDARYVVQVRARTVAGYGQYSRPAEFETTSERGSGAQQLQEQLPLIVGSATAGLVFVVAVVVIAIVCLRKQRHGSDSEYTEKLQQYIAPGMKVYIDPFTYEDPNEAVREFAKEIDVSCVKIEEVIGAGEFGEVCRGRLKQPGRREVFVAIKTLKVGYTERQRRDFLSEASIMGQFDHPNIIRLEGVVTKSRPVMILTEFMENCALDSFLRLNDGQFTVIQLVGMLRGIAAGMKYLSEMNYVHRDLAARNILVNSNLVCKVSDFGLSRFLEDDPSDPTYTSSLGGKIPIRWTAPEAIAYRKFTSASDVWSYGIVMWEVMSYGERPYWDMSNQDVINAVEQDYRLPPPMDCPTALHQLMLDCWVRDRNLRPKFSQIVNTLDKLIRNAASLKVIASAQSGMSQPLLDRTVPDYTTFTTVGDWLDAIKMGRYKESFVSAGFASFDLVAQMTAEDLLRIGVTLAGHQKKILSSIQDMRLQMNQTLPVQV

[6] = target: T2, Dual specificity tyrosine-phosphorylation-regulated kinase 3 (Homo sapiens) (UniProt O43781); experiment: Inhibition of human DYRK3 (1 to 588 residues) assessed as enzyme activity at 1 uM using 33P ATP by radioactive filter binding assay; design: scale not given: the % may be the effect or the level left
T2 sequence (whole entry): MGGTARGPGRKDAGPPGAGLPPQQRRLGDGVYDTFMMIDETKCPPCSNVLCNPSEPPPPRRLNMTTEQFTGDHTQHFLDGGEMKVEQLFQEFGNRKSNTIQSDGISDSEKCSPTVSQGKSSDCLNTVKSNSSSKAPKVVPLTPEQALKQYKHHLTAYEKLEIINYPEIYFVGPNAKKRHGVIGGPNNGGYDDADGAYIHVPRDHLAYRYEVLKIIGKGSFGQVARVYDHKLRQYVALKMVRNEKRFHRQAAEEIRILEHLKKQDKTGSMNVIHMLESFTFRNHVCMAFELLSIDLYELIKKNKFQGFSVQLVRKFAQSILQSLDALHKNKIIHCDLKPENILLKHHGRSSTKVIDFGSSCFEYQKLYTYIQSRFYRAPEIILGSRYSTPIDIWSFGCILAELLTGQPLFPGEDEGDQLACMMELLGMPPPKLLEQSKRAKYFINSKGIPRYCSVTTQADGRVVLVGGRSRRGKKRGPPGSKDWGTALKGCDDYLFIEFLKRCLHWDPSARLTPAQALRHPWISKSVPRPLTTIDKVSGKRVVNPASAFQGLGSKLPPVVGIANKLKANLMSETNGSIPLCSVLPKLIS

[7] = target: T3, 3-phosphoinositide-dependent protein kinase 1 (Homo sapiens) (UniProt O15530); experiment: Inhibition of human PDK1 (52 to 556 residues) assessed as enzyme activity at 1 uM using 33P ATP by radioactive filter binding assay; design: scale not given: the % may be the effect or the level left
T3 sequence (whole entry): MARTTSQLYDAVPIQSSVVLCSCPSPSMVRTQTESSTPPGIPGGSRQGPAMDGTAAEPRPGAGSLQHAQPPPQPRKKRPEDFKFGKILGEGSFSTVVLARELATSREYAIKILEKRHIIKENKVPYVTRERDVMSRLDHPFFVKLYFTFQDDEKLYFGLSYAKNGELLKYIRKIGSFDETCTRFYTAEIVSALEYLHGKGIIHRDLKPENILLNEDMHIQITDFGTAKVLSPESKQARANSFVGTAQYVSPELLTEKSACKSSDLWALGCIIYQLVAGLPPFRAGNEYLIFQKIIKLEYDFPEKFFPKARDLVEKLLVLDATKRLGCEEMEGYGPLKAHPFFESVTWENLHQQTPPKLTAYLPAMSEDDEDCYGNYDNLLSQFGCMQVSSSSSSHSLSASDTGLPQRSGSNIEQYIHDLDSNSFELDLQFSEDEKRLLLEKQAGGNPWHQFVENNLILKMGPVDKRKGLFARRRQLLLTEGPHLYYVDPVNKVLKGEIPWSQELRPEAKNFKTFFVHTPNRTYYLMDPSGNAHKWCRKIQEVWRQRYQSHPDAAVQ

[8] = target: Serine/threonine-protein kinase PAK 4 (Homo sapiens) (UniProt O96013); experiment: Inhibition of human PAK4 (2 to 591 residues) assessed as enzyme activity at 1 uM using 33P ATP by radioactive filter binding assay; design: scale not given: the % may be the effect or the level left
Sequence of Serine/threonine-protein kinase PAK 4 (Homo sapiens) (O96013 whole entry, looked up, the tested form may be a part): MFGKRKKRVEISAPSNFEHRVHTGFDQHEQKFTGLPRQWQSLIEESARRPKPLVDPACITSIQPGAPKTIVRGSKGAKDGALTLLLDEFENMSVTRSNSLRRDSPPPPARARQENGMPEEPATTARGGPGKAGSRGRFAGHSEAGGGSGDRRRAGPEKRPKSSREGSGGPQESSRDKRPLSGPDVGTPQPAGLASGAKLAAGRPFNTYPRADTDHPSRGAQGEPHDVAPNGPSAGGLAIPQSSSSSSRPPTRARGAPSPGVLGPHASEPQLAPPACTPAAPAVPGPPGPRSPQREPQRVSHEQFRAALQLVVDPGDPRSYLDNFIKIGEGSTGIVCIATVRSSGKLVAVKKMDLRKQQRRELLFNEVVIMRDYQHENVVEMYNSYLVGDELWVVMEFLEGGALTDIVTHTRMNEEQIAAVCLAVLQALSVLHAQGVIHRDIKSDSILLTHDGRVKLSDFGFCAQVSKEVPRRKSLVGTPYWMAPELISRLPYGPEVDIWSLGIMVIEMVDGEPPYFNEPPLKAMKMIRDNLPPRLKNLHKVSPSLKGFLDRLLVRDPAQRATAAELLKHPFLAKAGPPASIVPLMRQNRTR

[9] = target: Serine/threonine-protein kinase 26 (Homo sapiens) (UniProt Q9P289); experiment: Inhibition of human MST4 (1 to 416 residues) assessed as enzyme activity at 1 uM using 33P ATP by radioactive filter binding assay; design: scale not given: the % may be the effect or the level left
Sequence of Serine/threonine-protein kinase 26 (Homo sapiens) (Q9P289 2-416 limits assumed): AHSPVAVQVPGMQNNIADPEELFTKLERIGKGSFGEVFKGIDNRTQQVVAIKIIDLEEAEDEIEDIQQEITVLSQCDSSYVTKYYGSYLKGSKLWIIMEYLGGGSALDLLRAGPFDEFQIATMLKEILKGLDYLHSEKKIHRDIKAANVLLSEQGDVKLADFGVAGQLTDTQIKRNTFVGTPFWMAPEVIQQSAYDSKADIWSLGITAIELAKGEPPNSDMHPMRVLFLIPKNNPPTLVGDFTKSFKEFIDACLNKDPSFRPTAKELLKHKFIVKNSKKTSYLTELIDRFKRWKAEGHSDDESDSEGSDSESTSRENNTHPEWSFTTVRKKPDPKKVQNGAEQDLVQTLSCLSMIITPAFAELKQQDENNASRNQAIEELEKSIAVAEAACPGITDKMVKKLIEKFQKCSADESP

[10] = target: Phosphatidylinositol 4,5-bisphosphate 3-kinase catalytic subunit alpha isoform (Homo sapiens, UniProt P42336); experiment: Inhibition of PI3K alpha (unknown origin)
Sequence of Phosphatidylinositol 4,5-bisphosphate 3-kinase catalytic subunit alpha isoform (P42336 whole entry, canonical isoform): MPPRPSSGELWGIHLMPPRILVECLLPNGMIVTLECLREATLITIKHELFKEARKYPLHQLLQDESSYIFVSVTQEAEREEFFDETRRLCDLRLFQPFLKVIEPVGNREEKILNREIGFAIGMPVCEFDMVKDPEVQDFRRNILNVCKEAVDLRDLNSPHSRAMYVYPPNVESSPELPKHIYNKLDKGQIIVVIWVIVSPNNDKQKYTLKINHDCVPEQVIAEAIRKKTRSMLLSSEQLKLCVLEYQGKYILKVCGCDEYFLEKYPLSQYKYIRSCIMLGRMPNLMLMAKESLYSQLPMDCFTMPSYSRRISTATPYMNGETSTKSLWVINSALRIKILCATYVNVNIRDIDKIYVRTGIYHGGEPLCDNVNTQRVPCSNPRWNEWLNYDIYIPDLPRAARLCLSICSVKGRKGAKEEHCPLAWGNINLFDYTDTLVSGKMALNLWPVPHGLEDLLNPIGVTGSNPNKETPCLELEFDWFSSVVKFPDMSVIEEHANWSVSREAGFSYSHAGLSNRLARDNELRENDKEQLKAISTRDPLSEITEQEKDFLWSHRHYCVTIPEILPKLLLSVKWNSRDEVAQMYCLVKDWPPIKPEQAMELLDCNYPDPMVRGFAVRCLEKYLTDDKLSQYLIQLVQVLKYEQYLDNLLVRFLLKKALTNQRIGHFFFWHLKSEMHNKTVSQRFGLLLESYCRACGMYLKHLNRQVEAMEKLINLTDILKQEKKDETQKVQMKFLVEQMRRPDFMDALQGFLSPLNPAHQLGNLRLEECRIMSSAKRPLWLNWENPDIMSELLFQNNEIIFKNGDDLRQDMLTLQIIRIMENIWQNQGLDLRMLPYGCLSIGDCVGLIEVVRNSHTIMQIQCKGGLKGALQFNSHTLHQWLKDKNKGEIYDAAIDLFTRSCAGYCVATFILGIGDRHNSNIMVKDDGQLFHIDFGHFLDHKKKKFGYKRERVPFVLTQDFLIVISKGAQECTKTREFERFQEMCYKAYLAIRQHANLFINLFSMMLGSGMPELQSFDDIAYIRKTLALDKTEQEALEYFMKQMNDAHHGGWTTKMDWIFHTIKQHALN

Sequence of MAP/microtubule affinity-regulating kinase 3 (Homo sapiens) (P27448 whole entry, looked up, the tested form may be a part): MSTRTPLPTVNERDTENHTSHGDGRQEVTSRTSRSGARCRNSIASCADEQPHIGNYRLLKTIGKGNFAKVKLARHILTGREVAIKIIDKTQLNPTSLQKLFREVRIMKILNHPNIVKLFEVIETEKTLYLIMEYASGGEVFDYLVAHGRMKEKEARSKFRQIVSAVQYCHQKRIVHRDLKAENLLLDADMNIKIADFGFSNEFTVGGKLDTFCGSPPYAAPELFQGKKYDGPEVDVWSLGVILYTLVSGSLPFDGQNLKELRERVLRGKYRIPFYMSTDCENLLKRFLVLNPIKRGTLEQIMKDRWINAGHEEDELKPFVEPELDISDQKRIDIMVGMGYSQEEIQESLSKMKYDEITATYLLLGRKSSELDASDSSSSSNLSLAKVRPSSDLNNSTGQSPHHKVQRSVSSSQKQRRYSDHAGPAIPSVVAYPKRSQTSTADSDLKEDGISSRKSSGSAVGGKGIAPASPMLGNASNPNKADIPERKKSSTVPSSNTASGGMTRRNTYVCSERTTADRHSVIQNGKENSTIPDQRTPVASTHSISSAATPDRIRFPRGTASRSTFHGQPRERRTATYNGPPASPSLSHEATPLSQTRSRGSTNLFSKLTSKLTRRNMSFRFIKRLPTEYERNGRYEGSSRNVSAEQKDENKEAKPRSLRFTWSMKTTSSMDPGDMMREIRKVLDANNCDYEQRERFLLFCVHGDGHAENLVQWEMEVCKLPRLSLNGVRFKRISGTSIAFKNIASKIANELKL

Row | SMILES | Activity [1] [%] | Activity [2] [%] | Activity [3] [%] | Activity [4] [%] | Activity [5] [%] | Activity [6] [%] | Activity [7] [%] | Activity [8] [%] | Activity [9] [%] | IC50 [10] [µM]
1 | CCCCc1cc(-c2c[nH]c3ncc(-c4cnn(C5CCNCC5)c4)cc23)nc(N)n1 | -95 | -60 | -69 | -92 | -25 | -84 | -92 | -60 | -40 | 5.5
2 | CCCCc1cc(-c2c[nH]c3ncccc23)nc(N)n1 | -58 | -3 | -6 | -44 |  | -80 | -54 | 1 | -4 | > 10
3 | CCc1cc(-c2c[nH]c3ncc(-c4cnn(C5CCNCC5)c4)cc23)nc(N)n1 | -89 | -49 | -54 | -81 | -19 | -87 | -80 | -47 | -49 | 
4 | Nc1nccc(-c2c[nH]c3ncccc23)n1 [MERIOLIN 1] | -59 | -6 | -11 | -37 | 28 | -82 | -12 | -22 | -9 | > 10
